Measured values published in patent US20210046190A1, “ANTICANCER AGENT” (OSAKA UNIVERSITY, priority 2018, published 2021).
Values after ≈ are worked out from the molar mass of the structure shown.

Columns and labels:
PLC = PLC hepatocellular carcinoma cell line; cited from earlier work
HepG2 cells [1] = assay: Intracellular reactive oxygen species (ROS) levels, CellROX flow cytometry; type: cell-based; conditions: 100 μg/ml, 6 hours
Description: CellROX Deep Red Reagent was purchased from Invitrogen (Carlsbad, Calif.), and intracellular ROS levels were measured. […] The treated cells were cultured at 37° C. for 6 hours, and the cell concentration of the sample was adjusted to 5×10^3 cells/ml. Then, the cells were cultured with a CellROX Deep Red Reagent (1 mM, Invitrogen) at 37° C. for 30 minutes while protected from light. Furthermore, the cells were stained with SYTOX Blue Dead Cell Stain (5 mM, Invitrogen), and counted by flow cytometry after dead cell exclusion. Flow cytometric analysis was performed using a Canto II flow cytometer (BD Biosciences).

HepG2 cells [2] = assay: Apoptosis assay, Annexin V-FITC/PI flow cytometry; type: cell-based; conditions: 100 μg/ml
Description: The cell apoptosis assay was performed by flow cytometry using an Annexin V-FITC Apoptosis Detection Kit (BioVision, Mountain View, Calif.) according to the manufacturer's protocol. For flow cytometric analysis, HepG2 cells (5×10^5 cells) were trypsinized, gently washed twice with PBS, and subsequently resuspended in 500 μL of 1× binding buffer. The cells were stained by adding 5 μL of Annexin V-FITC and propidium iodide (PI) in the dark at room temperature for 5 minutes. The green fluorescence of FITC-bound Annexin V and the red fluorescence of DNA-bound PI were measured using a Canto II flow cytometer (BD Biosciences).

[3] = 30 mg once a day in oral administration, acute leukemia; cited from earlier work
HuH7 = HuH7 hepatocellular carcinoma cell line; cited from earlier work

CC(C)C[C@H](NC(=O)[C@@H](O)[C@H](N)Cc1ccccc1)C(=O)O [ubenimex, (2S)-2-[(2S,3R)-3-amino-2-hydroxy-4-phenylbutanoylamino]-4-methylpentanoic acid]
IC30 (PLC): 498.8 µg/mL (≈ 1620 µM) | intracellular ROS levels (HepG2 cells [1]): has an effect of enhancing intracellular ROS levels | apoptosis (HepG2 cells [2]): has an effect of inducing apoptosis | maximum blood concentration [3]: 2.21 µg/mL | IC30 (HuH7): 394.8 µg/mL (≈ 1280 µM)
